Test results published in paper PMC5613016, “GRL-09510, a Unique P2-Crown-Tetrahydrofuranylurethane -Containing HIV-1 Protease Inhibitor, Maintains Its Favorable Antiviral Activity against Highly-Drug-Resistant HIV-1 Variants in vitro” (Scientific Reports, 2017).
Read-outs that look alike come from different tables or passages of the source.

Assays:
[1] = test system: HIV-1ERS104pre (wild-type); details: PHA-PBMs, p24 assay, previously reported; and 22; read-out: EC50 HIV-1WT/ERS104pre; cited from earlier work
HIV-1MDR/G [2] = test system: HIV-1MDR/G; set-up: method as in earlier work; details: and 22, cited from earlier work; for EC50: PHA-PBMs, p24 assay, previously reported; for fold change in EC50 HIV-1MDR/G: compared to HIV-1WT/ERS104pre, previously reported data
HIV-1NL4-3 [3] = details: MT-4 cells, p24 assay, previously reported; and 22; cited from earlier work
HIV-1APV ^R 5μM [4] = test system: HIV-1APV ^R 5μM; set-up: method as in earlier work; details: and 22, cited from earlier work; for EC50: MT-4 cells, p24 assay, previously reported, read-out: EC50 HIV-1APVR5M; for fold change in EC50 HIV-1APVR5M: compared to HIV-1NL4-3, previously reported data
HIV-1LAI = assay: microbe, parasite or virus in culture; format: cell-based; details: Human immunodeficiency virus 1, MT2, MT-2 cells, 100 TCID50, MTT assay; read-out: EC50 Against HIV-1LAI
Experimental: (§1) The susceptibility of HIV-1LAI or HIV-2ROD to various compounds was determined as previously described[20]–[22]. Briefly, MT-2 cells (10^4/ml) were exposed to 100 TCID50 of HIV-1LAI or HIV-2ROD in the presence or absence of various concentrations of compounds in 96-well plates and were incubated at 37 °C for 7 days. After incubation, 100 μl of the medium was removed from each well, 3-(4,5-dimetylthiazol-2-yl)-2,5-diphenyltetrazolium bromide (MTT) solution (10 μl, 7.5 mg/ml in PBS) was added to each well, followed by incubation at 37 °C for 2 h. […] To determine the sensitivity of clinically isolated HIV-1s to compounds, PHA-PBMC (10^6/ml) were exposed to 50 TCID50 of each HIV-1 and cultured in the presence or absence of various concentrations of compounds in 10-fold serial dilutions in 96-well plates. In determining the drug-susceptibility of certain laboratory HIV-1 strains, MT-4 cells were employed as target cells as previously described[23],[24]. MT-4 cells (10^5/ml) were exposed to 100 TCID50 of drug-resistant HIV-1s in the presence or absence of various concentrations of compounds and were incubated at 37 °C. On day 7, the supernatants were harvested and the amounts of p24 were determined by using a fully-automated chemiluminescent enzyme immunoassay system (Lumipulse f: Fujirebio, Tokyo)[35]–[37]. […] All assays were performed in duplicate, and EC50 shown in this report represent average values of two to four independent experiments. PHA-PBMCs were derived from a single donor in each independent experiment. The research protocols described in the present study were carried out in accordance with relevant guidelines and regulations, and were approved in Ethics Committee for Epidemiological and General Research at the Faculty of Life Sciences, Kumamoto University.

HIV-2ROD = assay: microbe, parasite or virus in culture; format: cell-based; details: Human immunodeficiency virus 2, MT2, MT-2 cells, 100 TCID50, MTT assay; read-out: EC50 Against HIV-2ROD
Experimental: as §1

[5] = Cytotoxicity against MT-2 cells (MTT assay); format: cell-based; details: human
Experimental: as §1

[6] = test system: HIV-1ERS104pre (wild-type); assay: p24 production inhibition in PHA-PBMC; format: cell-based; details: Human immunodeficiency virus 1, PHA-PBMC, p24 Gag production
Experimental: as §1

HIV-1MDR/B = assay: p24 production inhibition in PHA-PBMC; format: cell-based; details: Human immunodeficiency virus 1, PHA-PBMC, p24 Gag production
Experimental: as §1

HIV-1MDR/C = assay: p24 production inhibition in PHA-PBMC; format: cell-based; details: Human immunodeficiency virus 1, PHA-PBMC, p24 Gag production
Experimental: as §1

HIV-1MDR/G [7] = assay: p24 production inhibition in PHA-PBMC; format: cell-based; details: Human immunodeficiency virus 1, PHA-PBMC, p24 Gag production
Experimental: as §1

HIV-1MDR/TM = assay: p24 production inhibition in PHA-PBMC; format: cell-based; details: Human immunodeficiency virus 1, PHA-PBMC, p24 Gag production
Experimental: as §1

HIV-1MDRmix DRV ^R 20P = assay: p24 production inhibition in PHA-PBMC; format: cell-based; details: Human immunodeficiency virus 1, read-out: EC50 HIV-1MDRmix DRV ^R 20P, PHA-PBMC, p24 Gag production
Experimental: as §1

HIV-1APV ^R 5μM [8] = assay: p24 production inhibition in MT-4 cells; format: cell-based; details: Human immunodeficiency virus 1, MT4, read-out: EC50 HIV-1APV ^R 5μM, MT-4 cells, p24 Gag production
Experimental: as §1

HIV-1ATV ^R 5μM = assay: p24 production inhibition in MT-4 cells; format: cell-based; details: Human immunodeficiency virus 1, MT4, read-out: EC50 HIV-1ATV ^R 5μM, MT-4 cells, p24 Gag production
Experimental: as §1

HIV-1LPV ^R 5μM = assay: p24 production inhibition in MT-4 cells; format: cell-based; details: Human immunodeficiency virus 1, MT4, read-out: EC50 HIV-1LPV ^R 5μM, MT-4 cells, p24 Gag production
Experimental: as §1

HIV-1_9510 ^R 36P = assay: p24 production inhibition in MT-4 cells; format: cell-based; details: for EC50: Human immunodeficiency virus 1, MT4, read-out: EC50 HIV-19510RP36
Experimental: as §1

HIV-1NL4-3 [9] = assay: In vitro selection of resistant HIV-1 variants in MT-4 cells; format: cell-based; details: HIV-1NL4-3 in MT-4 cells, increasing concentrations
Description: MT-4 cells (10^5/ml) were exposed to HIV-1NL4-3 (500 TCID50) and cultured in the presence of compounds at an initial concentration of its EC50 value. Viral replication was monitored by the determination of the amount of p24 produced by MT-4 cells. The supernatants were harvested on day 7 and were used to infect fresh MT-4 cells for the next round of culture in the presence of increasing concentrations of each compound. Proviral DNAs obtained from the lysates of infected cells were subjected to sequencing. This selection procedure was carried out until the drug concentration reached 5 μM as previously described[20]–[22]).

HIV-1NL4-3 [10] = assay: p24 production inhibition in MT-4 cells; format: cell-based; details: Human immunodeficiency virus 1, MT4, MT-4 cells, p24 Gag production, Supplemental Table 3
Experimental: as §1

In the case of COc1ccc(S(=O)(=O)N(CC(C)C)C[C@@H](O)[C@H](Cc2ccccc2)NC(=O)OC2CO[C@H]3OCC(F)(F)[C@@H]23)cc1 (some centres unmarked) [GRL-04810], the EC50 [1] is listed as 2.3 ± 0.1 nM, the EC50 (HIV-1MDR/G [2]) is listed as 4 ± 1 nM and the “fold change in EC50 HIV-1MDR/G” value (HIV-1MDR/G [2]) is listed as 2. The EC50 (HIV-1NL4-3 [3]) was 0.5 ± 0.5 nM, the EC50 (HIV-1APV ^R 5μM [4]) was 430 ± 20 nM and the “fold change in EC50 HIV-1APVR5M” value (HIV-1APV ^R 5μM [4]) was 860.
In the case of CC(C)CN(C[C@@H](O)[C@H](Cc1ccccc1)NC(=O)O[C@H]1CO[C@H]2OCC(F)(F)[C@H]21)S(=O)(=O)c1ccc(N)cc1 [GRL-05010], the EC50 [1] is given as 2.7 ± 0.3 nM, the EC50 (HIV-1MDR/G [2]) is given as 4 ± 1 nM and the “fold change in EC50 HIV-1MDR/G” value (HIV-1MDR/G [2]) is given as 1. For the same compound, the EC50 (HIV-1NL4-3 [3]) was 3.7 ± 0.1 nM, the EC50 (HIV-1APV ^R 5μM [4]) was 560 ± 30 nM and the “fold change in EC50 HIV-1APVR5M” value (HIV-1APV ^R 5μM [4]) was 187.
Cc1cccc(C)c1OCC(=O)N[C@@H](Cc1ccccc1)[C@@H](O)C[C@H](Cc1ccccc1)NC(=O)[C@H](C(C)C)N1CCCNC1=O [LPV, Lopinavir] gave an EC50 (HIV-1LAI) of 23 ± 3 nM, an EC50 (HIV-2ROD) of 21 ± 7 nM and a CC50 [5] of 26700 ± 4200 nM. The EC50 [6] was 28 ± 2 nM, the EC50 (HIV-1MDR/B) was > 1000 nM and the EC50 (HIV-1MDR/C) was 390 ± 50 nM. For the same compound, the EC50 (HIV-1MDR/G [7]) was 180 ± 20 nM, the EC50 (HIV-1MDR/TM) was 550 ± 90 nM and the EC50 (HIV-1MDRmix DRV ^R 20P) was > 1000 nM. The EC50 (HIV-1APV ^R 5μM [8]) was 400 ± 10 nM, the EC50 (HIV-1ATV ^R 5μM) was > 1000 nM and the EC50 (HIV-1LPV ^R 5μM) was > 1000 nM. For the same compound, the EC50 (HIV-1_9510 ^R 36P) was 400 ± 20 nM.
With Cc1nnc(C(=O)NC(C)(C)c2nc(C(=O)NCc3ccc(F)cc3)c(O)c(=O)n2C)o1 [RAL, Raltegravir] the “passage at which selection concentration reached 5 µM” value (HIV-1NL4-3 [9]) was ≥ 20.
In the case of CC(C)(C)NC(=O)[C@@H]1C[C@@H]2CCCC[C@@H]2CN1C[C@@H](O)[C@H](Cc1ccccc1)NC(=O)[C@H](CC(N)=O)NC(=O)c1ccc2ccccc2n1 [SQV, saquinavir], the EC50 (HIV-1NL4-3 [10]) is reported as 18 ± 1 nM, the EC50 (HIV-1_9510 ^R 36P) is reported as 41 ± 9 nM and the “fold change of EC50 HIV-19510RP36” value (HIV-1_9510 ^R 36P; compared to EC50 for HIV-1NL4-3, Supplemental Table 3) is reported as 2.
